Source: patent US5043332A, “Novel 11β-substituted -19-nor-steriods” (priority 1981, dated 1991)

Tests used:
uterine endometrium [1] = assay: Progestomimetic activity, oral, change in uterine endometrium (McPhail); type: in vivo, immature female rabbits
Method: (§1) IV. Progestomimetic and Anti-progestomimetic Activity
(§2) a) Groups of immature female rabbits weighing about 1 kg had administered to them subcutaneously from day 1 to day 5, 5 μg of estradiol. The product tested was afterward administered orally from day 8 to day 11 in a volume of 0.5 cm^3 of water containing 0.5% of carboxymethyl cellulose and 0.2% of Tween. On day 12, the rabbits were sacrificed, their uteruses were retained and fixed in Bouin's solution and histologically studied.
(§3) The changes in the uterine endometrium were noted according to the method of McPhail.

[2] = tested on: thymocytes of surrenalectomized rats; assay: Antiglucocorticoidal activity, incorporation of tritiated uridine in thymocytes; type: cell-based; conditions: for opposition to the effect of dexamethasone on tritiated uridine incorporation (in words): with 5×10^-8 M dexamethasone; for inhibition at 0.1 µM: 5 × 10^-8 M dexamethasone + test product 10^-7 M; for inhibition at 0.01 µM: 5 × 10^-8 M dexamethasone + test product 10^-8 M
Method: III. Antiglucocorticoidal Activity
The test used was that of Dausse et al [Molecular Pharmacology, Vol. 13 (1977), p. 948-955] entitled "The relationship between glucocorticoid structure and effects upon thymocytes" for […] thymocytes. The thymocytes of surrenalectomized rats were incubated at 37° C. for 3 hours in a nutritive medium containing 5×10^-8 M of dexamethasone in the presence or absence of the test compound at different concentrations. Tritiated uridine was added and incubation was continued for one hour. The incubates were cooled and treated with a 5% trifluoroacetic acid solution and the mixture was filtered with Whatman GF/A paper. The filter was washed 3 times with a 5% trifluoroacetic acid solution and retained radioactivity on the filter was determined.

female rats = assay: Anti-implantation and abortive activities in female rats; type: in vivo, rat; conditions: by mouth
Method: V. ANTI-IMPLANTATION AND ABORTIVE ACTIVITIES IN FEMALE RATS
The first day of gestation is determined by the presence of sperm in the vagina.
The animals were sacrificed between the 5th and 8th day after the last treatment and the uterus was examined.

uterine endometrium [3] = assay: Anti-progestomimetic activity versus progesterone, intrauterine, change in uterine endometrium (McPhail); type: in vivo, immature female rabbits
Method: Groups of three immature female rabbits weighing about 1 kg were topically treated on the dorsal skin with 25 μg of estradiol in 10 μl of ethanol on day 1. On day 4 the product to be tested dissolved in 0.1 ml, of sesame oil containing 5% benzyl alcohol was introduced into a part of the uterus isolated between two ligatures. On the sixth day the animals were sacrificed, their uteruses retained and fixed in Bouin's solution for histological examination. Changes in the uterine endometrium were noted after the method of McPhail.

uterine endometrium [4] = assay: Anti-progestomimetic activity versus progesterone, oral, change in uterine endometrium (McPhail); type: in vivo, immature female rabbits
Method: as §1, §2, §3

[5] = molecular target: T1, Estrogen receptor of uterus of mice (Mus musculus, UniProt P19785); assay: Estrogen receptor binding (displacement of tritiated estradiol); conditions: second table; incubation 2 H at 0° C.
T1 construct: the uterus were removed and homogenized at 0° C; from tissue; host or cells: mouse uterus, 105,000 g supernatant (immature females 18 to 21 days old)
T1 sequence (P19785 1-599): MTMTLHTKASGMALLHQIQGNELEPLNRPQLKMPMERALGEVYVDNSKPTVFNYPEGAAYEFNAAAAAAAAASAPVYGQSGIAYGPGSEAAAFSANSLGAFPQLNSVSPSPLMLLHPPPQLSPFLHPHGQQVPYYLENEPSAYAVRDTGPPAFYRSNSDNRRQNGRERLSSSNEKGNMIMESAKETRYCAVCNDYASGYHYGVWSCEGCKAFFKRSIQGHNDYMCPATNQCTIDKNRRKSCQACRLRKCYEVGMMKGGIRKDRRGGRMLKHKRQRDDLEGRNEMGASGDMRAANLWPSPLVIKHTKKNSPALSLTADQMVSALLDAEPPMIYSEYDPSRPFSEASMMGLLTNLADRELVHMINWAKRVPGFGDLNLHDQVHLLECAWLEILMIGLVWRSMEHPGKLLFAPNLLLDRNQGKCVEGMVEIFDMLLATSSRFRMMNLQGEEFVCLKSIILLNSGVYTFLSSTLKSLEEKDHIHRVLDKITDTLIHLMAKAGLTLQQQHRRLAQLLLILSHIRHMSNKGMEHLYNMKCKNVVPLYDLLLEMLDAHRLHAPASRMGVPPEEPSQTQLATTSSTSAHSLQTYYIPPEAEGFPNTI
Method: E. Estrogen receptor of uterus of mice
Immature female mice 18 to 21 days old were killed and the uterus were removed and homogenized at 0° C. with a polytetrafluoroethylene-glass Potter in a buffered TS solution consisting of 10 mM, Tris, 0125M Saccharose, HCl for a pH of 7.4 at a rate of 1 g of tissue per 25 ml of TS. The homogenate was then ultracentrigued at 105,000 g for 90 minutes at 0° C. and aliquoits of the resulting […] were incubated at 0° C. for a time (t) with a constant concentration (T) of tritiated estradiol in the presence of increasing concentrations (0 to 1000×10^-9 M) of either cold estradiol or cold test compound. The concentration of tied tritiated estradiol (B) was measured for each incubate by the technique of adsorption on carbon-dextran.
The calculation of the relative affinity of […] (ARL) was identical for all of the above receptor tests. One traced the following two curves: the percentage of tied tritiated hormone B/T as a function of the logarithm of the cold hormone concentration and B/T as a function of the logarithm of the concentration of the cold test product. One determined the line of the equation. [formula]
The intersection of the I50 line and the curves permits one to determine the concentrations of the cold hormone of the reference (CH) and the cold test compound (CX) which inhibit by 50% the tieing of tritiated hormone with the receptor. The relative affinity of tieing (ARL) of the test product was determined by the equation: [formula]

[6] = Rattus norvegicus, Thymocyte, second table, read-out: % of inhibition of effect of Dexamethasone
[7] = second table, 5 × 10^-8 M dexamethasone + test product 10^-6 M

`CC#C[C@]1(O)CC[C@H]2[C@@H]3CCC4=CC(=O)CCC4=C3[C@@H](c3ccc(N(C)C)cc3)C[C@@]21C` [Example 19, 11β-[4-(N,N-dimethylamino)-phenyl]-17α-(prop-1-ynyl)-Δ^4,9-estradiene-17β-ol-3-one] was tested, and the “CHANGE IN THE ENDOMETRIUM” value (uterine endometrium [1]; 0.3 mg/kg by mouth) was 0 McPHAIL UNTS, the “CHANGE IN THE ENDOMETRIUM” value (uterine endometrium [1]; 1.0 mg/kg by mouth) was 0 McPHAIL UNTS and the “CHANGE IN THE ENDOMETRIUM” value (uterine endometrium [1]; 3.0 mg/kg by mouth) was 0 McPHAIL UNTS. The “CHANGE IN THE ENDOMETRIUM” value (uterine endometrium [1]; 10.0 mg/kg by mouth) was 0 McPHAIL UNTS, the “CHANGE IN THE ENDOMETRIUM” value (uterine endometrium [1]; 50 mg/kg by mouth) was 0 McPHAIL UNTS and the “opposition to the effect of dexamethasone on tritiated uridine incorporation (in words)” value (“opposition to the effect” for short) [2] was “opposed this effect”. The “RESULTS (anti-implantation / abortion)” value (female rats; days 1, 2, 3, 2 mg/kg/day) was “No action”, the “RESULTS (anti-implantation / abortion)” value (female rats; days 1, 2, 3, 10 mg/kg/day) was “Non-implantation” and the “RESULTS (anti-implantation / abortion)” value (female rats; days 4, 5, 6, 2 mg/kg/day) was “Non-implantation”. For the same compound, the “RESULTS (anti-implantation / abortion)” value (female rats; days 4, 5, 6, 10 mg/kg/day) was “Non-implantation”, the “RESULTS (anti-implantation / abortion)” value (female rats; days 7, 8, 9, 2 mg/kg/day) was “Abortion” and the “RESULTS (anti-implantation / abortion)” value (female rats; days 7, 8, 9, 10 mg/kg/day) was “Abortion”. The “RESULTS (anti-implantation / abortion)” value (female rats; days 10, 11, 12, 2 mg/kg/day) was “Abortion”, the “RESULTS (anti-implantation / abortion)” value (female rats; days 10, 11, 12, 10 mg/kg/day) was “Abortion” and the “Abortion, % of the animals” value (female rats; days 13, 14, 15, 2 mg/kg/day) was 50%. For the same compound, the “RESULTS (anti-implantation / abortion)” value (female rats; days 13, 14, 15, 10 mg/kg/day) was “Abortion”, the “CHANGE IN THE ENDOMETRIUM” value (uterine endometrium [3]; progesterone 10 μg + 1 μg/rabbit) was 1.6 and the “CHANGE IN THE ENDOMETRIUM” value (uterine endometrium [3]; progesterone 10 μg + 3 μg/rabbit) was 1.3. For the same compound, the “CHANGE IN THE ENDOMETRIUM” value (uterine endometrium [3]; progesterone 10 μg + 10 μg/rabbit) was 1.0, the “CHANGE IN THE ENDOMETRIUM” value (uterine endometrium [3]; progesterone 10 μg + 30 μg/rabbit) was 0.6 and the “CHANGE IN THE ENDOMETRIUM” value (uterine endometrium [3]; progesterone 10 μg + 90 μg/rabbit) was 0.6. For the same compound, the “CHANGE IN THE ENDOMETRIUM” value (uterine endometrium [4]; progesterone 0.2 mg subcutaneously + 0.3 mg/kg by mouth) was 2.8 McPHAIL UNTS, the “CHANGE IN THE ENDOMETRIUM” value (uterine endometrium [4]; progesterone 0.2 mg subcutaneously + 1 mg/kg by mouth) was 2.1 McPHAIL UNTS and the “CHANGE IN THE ENDOMETRIUM” value (uterine endometrium [4]; progesterone 0.2 mg subcutaneously + 3 mg/kg by mouth) was 1.4 McPHAIL UNTS. The “CHANGE IN THE ENDOMETRIUM” value (uterine endometrium [4]; progesterone 0.2 mg subcutaneously + 10 mg/kg by mouth) was 0.6 McPHAIL UNTS and the “CHANGE IN THE ENDOMETRIUM” value (uterine endometrium [4]; progesterone 0.2 mg subcutaneously + 20 mg/kg by mouth) was 0 McPHAIL UNTS.

In the case of `CN(C)c1ccc([C@H]2C[C@@]3(C)[C@@H](CC[C@@]3(O)C#Cc3ccccc3)[C@@H]3CCC4=CC(=O)CCC4=C32)cc1` [Example 29, 11β-[4-(N,N-dimethylamino)-phenyl]-21-phenyl-19-nor-17α-Δ^4,9-pregnadiene-20-yne-17β-ol-3-one], the “relative affinity of tieing (ARL), Estrogen” value (shortened to “relative affinity of tieing”) [5] is reported as 0, the inhibition at 0.1 µM [2, 6] is reported as 57% and the inhibition at 0.01 µM [2, 6] is reported as 18%. For the same compound, the “% of inhibition of effect of Dexamethasone (symbol)” value [2, 7] was “* (A dose of 10^-6 M inhibited totally the effect of dexamethasone)” and the “opposition to the effect” value [2] was “opposed this effect”.

For `CC#C[C@]1(O)CC[C@H]2[C@@H]3CCC4=CC(=O)CCC4=C3[C@@H](c3ccc([N+](C)(C)[O-])cc3)C[C@@]21C` [Example 35, N-oxide of 11β-[4-(N,N-dimethylamino)-phenyl]-17α-(prop-1-ynyl)-Δ^4,9-estradiene-17β-ol-3-one], the “relative affinity of tieing” value [5] was 0, the inhibition at 1 µM ([2]; Rattus norvegicus, Thymocyte, second table, 5 × 10^-8 M dexamethasone + test product 10^-6 M, read-out: % of inhibition of effect of Dexamethasone) was 50% and the inhibition at 0.1 µM [2, 6] was 21%. For the same compound, the inhibition at 0.01 µM [2, 6] was 4% and the “opposition to the effect” value [2] was “opposed this effect”.

`C=CC[C@]1(O)CC[C@H]2[C@@H]3CCC4=CC(=O)CCC4=C3[C@@H](c3ccc(N(C)C)cc3)C[C@@]21C` [Example 37, 11β-[4-(N,N-dimethylamino)-phenyl]-17α-(prop-2-enyl)-Δ^4,9-estradien-17β-ol-3-one] was tested, and the “relative affinity of tieing” value [5] was 0, the “% of inhibition of effect of Dexamethasone (symbol)” value [2, 7] was “* (A dose of 10^-6 M inhibited totally the effect of dexamethasone)” and the “opposition to the effect” value [2] was “opposed this effect”.
